From the METLIN SMRT retention time set (Domingo-Almenara et al. 2019) come the findings set out here.

This data set in a line: gradient 5% acetonitrile 3 min, to 50% in 2 min, to 85% in 15 min, held 3 min, 100 µL/min. Conditions: column: Zorbax Extend-C18 2.1 x 50 mm; eluents: water / acetonitrile, 0.1% formic acid. The procedure, abridged:
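Standards, all pure, were combined into mixtures of ~100 molecules and run at 100 μL/min on a Zorbax Extend-C18 column (2.1 × 50 mm, 1.8 μm) with water and acetonitrile, each containing 0.1% formic acid. A coupled quadrupole time-of-flight mass spectrometer operated in positive and negative ionization mode. Retention time values come from computationally picked adduct peaks, each inspected manually.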
With `O=S(=O)(c1cccc2cccnc12)N1CC(c2noc(C3CCCN3CC3CC3)n2)C1` (stereo unspecified), the RP-LC retention time amounted to 634 s.

In turn, `N#Cc1cc2c(nc1SCC(=O)N1CCOCC1)CCCC2` showed an RP-LC retention time of 798 s.

Turning to `CCOc1cc(=O)n2c(c1C(=O)NCC1CCCO1)CCCCC2` (stereo unspecified), the RP-LC retention time is 610 s.

For the compound `Cc1ccccc1CNC(=O)c1ccc2c(c1)nc1n2CCN(C2CCCCC2)C1=O`, the RP-LC retention time turned out to be 836 s.

As to `CC(C)OCCCNC(=O)c1cc2n(n1)CCCN(Cc1ccc(F)cc1)C2=O`, the RP-LC retention time stood at 795 s.

In turn, `COc1ccccc1C(=O)N1CCCC1c1nc(-c2ccc(F)cc2F)no1` (stereo unspecified) yielded an RP-LC retention time of 1020 s.

Take `Cc1ccc(NC(=O)N2CCN(c3cnn4c(C)nnc4c3)CC2)c(C)c1`: the RP-LC retention time is 634 s.

With `Cc1nn2c(CNS(=O)(=O)c3ccc(F)c(C)c3)c(-c3ccccc3)nc2s1`, the RP-LC retention time is 898 s.

As to `Cc1ccc(NS(=O)(=O)c2cc(-c3cc(C(F)(F)F)on3)sc2C)cc1`, the RP-LC retention time was 1170 s.

In turn, `COc1cc(-c2ccc(F)cc2)nc2ccc(NS(=O)(=O)c3ccc(C#N)cc3)cc12` registered an RP-LC retention time of 784 s.

For the compound `CCOC(=O)CC(=O)Nc1cc2c(cc1N1CCCC1)n(C)c(=O)n2C`, the RP-LC retention time came to 587 s.

On to `Cn1c(C2CCN(C(=O)Nc3ccccc3F)CC2)cc(=O)n2nccc12`, for which the RP-LC retention time was 622 s.

Regarding `O=C(NCc1ccccc1Cl)C(=O)N1CCN(Cc2ccc3c(c2)OCO3)CC1`, the RP-LC retention time was 583 s.

Take `Cc1noc(-c2cccc(OC3CN(C(=O)Nc4ccccc4)C3)c2)n1`: the RP-LC retention time came to 844 s.

Compound `CCOc1cc(S(=O)(=O)Nc2cccc(C)n2)c(C)cc1C` gave an RP-LC retention time of 779 s.

Compound `CCCNc1cc(N2CCC(CCC(=O)NCc3cccc(C)c3)CC2)ncn1` came in with an RP-LC retention time of 716 s.

As to `Cc1cccc(CN2CC(n3cc(COc4ccc(F)cc4)nn3)C2)c1`, the RP-LC retention time was 605 s.

The compound `Cc1onc(-c2ccncc2)c1C(=O)NCCN(C)C1CCCCC1` returned an RP-LC retention time of 575 s.

`CCc1ccc(CNC(=O)c2cc3c(=O)n(C)ccc3n2C)cc1` gave an RP-LC retention time of 746 s.

`Cc1ccn2c(NC(=O)c3c(F)cccc3Cl)c(-c3ccc(F)cc3)nc2c1`: the RP-LC retention time is 701 s.

`CCCCCCC(C)OC(=O)c1ccccc1C(=O)O` (stereo unspecified) yielded an RP-LC retention time of 1130 s.

As for `COc1ccc(NS(=O)(=O)c2cc3c4c(c2)CCC(=O)N4CCC3)cc1OC`, the RP-LC retention time stood at 730 s.

Consider `Cc1nn(C)c(=O)c2cc(S(=O)(=O)NCc3ccccc3Cl)cn12`, for which the RP-LC retention time was determined as 807 s.

Compound `O=C(NC1CCN(c2cc(-c3cccnc3)[nH]n2)CC1)c1ccc2cc[nH]c2c1` gave an RP-LC retention time of 616 s.

Regarding `O=C(Nc1cccnc1)c1ccc(CNS(=O)(=O)c2cccc(C(F)(F)F)c2)cc1`, the RP-LC retention time stood at 635 s.

On to `Cc1noc(C2CN(C(=O)c3n[nH]c4ccccc34)CC23CCN(C)CC3)n1` (stereo unspecified), for which the RP-LC retention time came to 1010 s.

With `CN(C)C(CNC(=O)c1cc(-c2ccc3c(c2)OCCO3)on1)c1ccc(Cl)cc1` (stereo unspecified), the RP-LC retention time was 705 s.

In the case of `Cc1nc(C(=O)NCc2ccccc2C(F)(F)F)c(C)o1`, the RP-LC retention time was found to be 917 s.

`CC(=O)Oc1ccc(OC(C)=O)c2c1CC1(C)OC1(C)C2` (stereo unspecified) had an RP-LC retention time of 703 s.

Compound `Cc1ccc(NC(=O)N2C[C@@H](F)C[C@H]2C(=O)N2CCCCC2)c(Cl)c1` showed an RP-LC retention time of 779 s.

`Cc1cccc(C)c1NC(=O)Cn1ncc2c(N3CCN(c4ccccn4)CC3)ncnc21` returned an RP-LC retention time of 606 s.

Consider `COc1cc(OC)cc(-c2nnc(-c3ccccc3Cl)o2)c1`, for which the RP-LC retention time amounted to 1070 s.

`O=S(=O)(Nc1ccc(Cn2cncn2)cc1)c1ccc(Br)cc1` registered an RP-LC retention time of 747 s.

The compound `CN(C)CCCNc1oc(-c2ccccc2)nc1S(=O)(=O)c1ccc(F)cc1` registered an RP-LC retention time of 692 s.

Compound `COc1ccc(C)cc1NC(=O)CCCn1cccc1` registered an RP-LC retention time of 876 s.

Compound `COc1ccc(N2CC(c3nc(-c4ccc(OC)c(OC)c4)no3)CC2=O)c(OC)c1` (stereo unspecified) gave an RP-LC retention time of 743 s.

`CC(C)Cn1cc(S(=O)(=O)NCc2ccccc2F)c2cccnc21`: the RP-LC retention time stood at 932 s.

In turn, `CCN(CC)S(=O)(=O)N1CCC(C(=O)NCCN2CCOCC2)CC1` came in with an RP-LC retention time of 579 s.

For `CN(C)CCNC(=O)C1CCN(c2ccc3nnc(-c4ccccc4Cl)n3n2)CC1`, the RP-LC retention time is 589 s.

In the case of `CCc1cc(C(=O)Nc2cccc(C#N)c2)nc2ccnn12`, the RP-LC retention time was 939 s.

Compound `Cc1ccc(S(=O)(=O)N2CCCC2c2nc(-c3cccc(Cl)c3)no2)cc1F` (stereo unspecified) showed an RP-LC retention time of 1280 s.

In the case of `CC(=O)N1CCN(c2nc3c(s2)CC(C(=O)Nc2ccccc2)CC3)CC1` (stereo unspecified), the RP-LC retention time is 541 s.

The compound `Cc1ccc(=O)n(CCNC(=O)Cc2cn(C)c3ccccc23)n1` came in with an RP-LC retention time of 620 s.

Turning to `Cc1cc(NC(=O)CSc2[nH]c(=O)ncc2C)on1`, the RP-LC retention time was 567 s.

Compound `Cc1nc(C)c(C(=O)Nc2cccc(Cl)c2C)o1` came in with an RP-LC retention time of 731 s.

The compound `CCOc1ccc(-c2c(C)nn3c(C)c(C(=O)NCC4CCCN4CC)cnc23)cc1OCC` (stereo unspecified) yielded an RP-LC retention time of 667 s.

In turn, `COc1cc(Nc2nc(C(=O)NCCN(C)C)cc3occc23)cc(OC)c1OC` displayed an RP-LC retention time of 629 s.

The compound `CC(=O)Nc1cc2c(cc1Sc1ccc(C)cc1)n(C)c(=O)n2C` yielded an RP-LC retention time of 785 s.

`Cc1cc(C(=O)Nc2nc(-c3cccc(Cl)c3)c(C)s2)no1` yielded an RP-LC retention time of 1140 s.

Turning to `CCc1ccc(C2=C(C)C(N3CCCN(C(=O)C4CC4)CC3)=NS2(=O)=O)cc1`, the RP-LC retention time was found to be 843 s.

`COC(=O)c1c(NC(C)c2ccc(F)cc2)c2cccc(Cl)c2[nH]c1=O` (stereo unspecified) had an RP-LC retention time of 858 s.

In turn, `CCc1nnc(-c2cc(S(=O)(=O)NCCc3ccc(S(N)(=O)=O)cc3)cn2C)o1` showed an RP-LC retention time of 676 s.

For the compound `Clc1ccccc1/C=C/c1ccnc2ccccc12`, the RP-LC retention time was 910 s.

With `O=c1n(Cc2cccc(F)c2)nc2c(S(=O)(=O)N3CCN(c4ccc(F)cc4)CC3)cccn12`, the RP-LC retention time is 967 s.

For the compound `O=C(Cc1cccs1)Nc1onc2c1CCCC2`, the RP-LC retention time came out at 730 s.

`O=C(NCc1ccccc1)N1CCCC1c1nc(-c2ccc(F)cc2F)no1` (stereo unspecified): the RP-LC retention time is 862 s.

The compound `Cc1ccc(N2C=NS(=O)(=O)c3cccnc32)c(F)c1` had an RP-LC retention time of 801 s.

Regarding `CCCN1C(=O)COc2ccc(-c3noc(COc4ccc(Cl)cc4)n3)cc21`, the RP-LC retention time came to 1190 s.

`COc1ccccc1C(=O)Nc1cc(-c2ccccn2)no1` had an RP-LC retention time of 980 s.

`COC(=O)c1ccc2c(=O)n(-c3ccc(C)c(C)c3)c(N3CCC(C)CC3)nc2c1`: the RP-LC retention time was 1440 s.

In the case of `CCc1nnc(-c2ccc3ccn(CC(=O)Nc4ccc(C(=O)OC)cc4)c3c2)o1`, the RP-LC retention time was 811 s.

For `Cc1ccc(NC(=O)CN2C(=O)CCCc3cc(S(=O)(=O)N4CCCCC4)ccc32)cc1`, the RP-LC retention time was determined as 845 s.

In the case of `O=S(=O)(c1ccc2c(c1)CCCC2)N1CCN(Cc2nnnn2-c2ccccc2)CC1`, the RP-LC retention time amounted to 991 s.

For the compound `COCCN1CCC2(CCC1=O)CCN(C(=O)Nc1ccc(Br)cc1)CC2`, the RP-LC retention time is 740 s.

For the compound `Cc1cccc(OCC(=O)N2CCN(c3cc(=O)n(C(C)C)c(=O)n3C(C)C)CC2)c1`, the RP-LC retention time stood at 909 s.

`COc1ccc(OC)c(NC(=O)NC2CCN(c3ccccc3)C2=O)c1` (stereo unspecified) returned an RP-LC retention time of 788 s.

With `Cc1nn(CC(=O)NCCN2CCOCC2)c(=O)c2c(-n3cccc3)n(-c3ccc(Cl)cc3)nc12`, the RP-LC retention time is 704 s.

With `CC(C)c1ccc(C(=O)Nc2ccc3c(c2)Sc2ncccc2C(=O)N3C)cc1`, the RP-LC retention time is 950 s.

`Cc1noc(C)c1CNC(=O)c1nccc2ccccc12` gave an RP-LC retention time of 753 s.

Consider `COc1ccc(-c2cc3n(n2)CCCN(S(=O)(=O)c2cccc(C#N)c2)C3)cc1OC`, for which the RP-LC retention time was determined as 814 s.

The compound `CCc1ccc(NC(=O)N2CCC(n3c(-c4ccco4)nc4cccnc43)C2)cc1` (stereo unspecified) showed an RP-LC retention time of 816 s.

On to `Cc1ccc(F)cc1S(=O)(=O)NC1CCN(c2ccccc2)C1=O` (stereo unspecified), for which the RP-LC retention time was found to be 928 s.

Turning to `CC(C(=O)NCc1nc2ccccc2[nH]1)n1nc(-c2cccs2)ccc1=O` (stereo unspecified), the RP-LC retention time was 576 s.

Compound `CC(C)CC(=O)Nc1cnc(N2CCCCCC2)nc1` gave an RP-LC retention time of 823 s.

In turn, `O=C(C1CCN(c2nc(-c3ccc(Cl)cc3)no2)CC1)N1CCN(c2ncccn2)CC1` came in with an RP-LC retention time of 968 s.

`Cn1cc(C(CNC(=O)Nc2ccc(Br)cc2F)c2cccnc2)c2ccccc21` (stereo unspecified) had an RP-LC retention time of 781 s.

In turn, `COc1ccc(-c2csc(NC(=O)CSc3nc4c(cc3C#N)CCC4)n2)cc1` came in with an RP-LC retention time of 1120 s.

As for `Cc1ccc(CN2CCN(C3CCN(C(=O)Nc4ccccc4)CC3)C2=O)cc1`, the RP-LC retention time turned out to be 844 s.

With `CCCc1noc(-c2ccnc(-n3ncc(C(=O)NC(C)C)c3C)c2)n1`, the RP-LC retention time was determined as 868 s.

`CC(C)N1C(=O)C(C)(C(=O)NC2CCCCC2)Oc2cccnc21` (stereo unspecified) came in with an RP-LC retention time of 1010 s.

Compound `O=C(NCC1CCN(c2ncccn2)CC1)Nc1c(F)cccc1F` gave an RP-LC retention time of 610 s.
